Structures can show the parent of a compound that is named as a salt. Where two headings read alike, the source gives them in different places.
Key:
μ receptor = molecular target: T1, μ receptor (Mus musculus, UniProt P42866); experiment: Opioid activity test using an extracted mouse vas deferens preparation, Ke with naloxone; design: species or system male ddy mouse; conditions: naloxone added
T1 construct: naloxone as mu antagonist (printed 'agonist')
Description: (§1) A male ddy mouse was used in this test. The vas deferens extracted from the animal was suspended in a Magnus tube filled with Krebes-Henseleit solution (NaCl 118 mM; KCl 4.7 mM; CaCl2 2.5 mM; KH2 PO4 1.1 mM; NaHCO3 25 mM; Glucose 11 mM) warmed to 37° C. and ventilated with 5% carbon dioxide and 95% oxygen. Electrical stimulus was performed at 0.1 Hz for 5.0 ms by means of ring-shaped platinum electrodes located above and below. Tissue contractions were recorded on a polygraph using an isometric transducer.
(§2) After adequately washing with nutrient solution and the contraction reaction stabilized, the μ agonist, naloxone, the δ agonist, NTI, or the κ agonist, norBNI, was added after which the test compound was again cumulatively added after roughly 20 minutes. The Ke value was calculated using the following calculation formula from the difference in the efficacies of both agonists.
(§3) Ke=[Conc. of added agonist]/(IC50 ratio-1)
(§4) IC50 ratio=IC50 in the presence of agonist/IC50 in the absence of agonist

κ receptor = molecular target: T2, κ receptor (Mus musculus, UniProt P33534); experiment: Opioid activity test using an extracted mouse vas deferens preparation, Ke with norBNI; design: species or system male ddy mouse; conditions: for receptor selectivity of agonist (κ): in words; for Ke, norBNI: κ, norBNI added
T2 construct: from tissue; host or cells: mouse (male ddy) vas deferens
Description: as §1, §2, §3, §4

δ receptor = molecular target: T3, δ receptor (Mus musculus, UniProt P32300); design: species or system male ddy mouse
T3 construct: The vas deferens extracted from the animal was suspended in a Magnus tube; from tissue; host or cells: mouse (male ddy) vas deferens

[1] = tested on: acetic acid-induced writhing in ddy mice; experiment: animal or person; assay type: in vivo, 5 week old ddy mice; conditions: s.c. 15 minutes before acetic acid
Description: 5 week old ddy mice were used in this test. After intraperitoneal administration of 0.1 ml of 0.6% aqueous acetic acid per 10 g of body weight, the number of writhing reactions that occurred in 10 minutes starting 10 minutes after administration was evaluated for the indicator. The test drug was administered subcutaneously into the backs of the animals 15 minutes before administration of acetic acid.

[2] = tested on: extracted mouse vas deferens preparation; experiment: Opioid activity test using an extracted mouse vas deferens preparation (suppression of electrically induced contractions); design: species or system male ddy mouse; conditions: electrical stimulus 0.1 Hz, 37° C.
Description: as §1, §2

[3] = Diuretic action (urine output for 5 hours after physiological saline loading in rats); assay type: in vivo, male Wistar rats; conditions: Rattus norvegicus, sc, 5 hours after saline 20 ml/kg p.o.; for ED (200% urine output): dose giving urine output of 200 (non-dosed group = 100); for ED (500% urine output): dose giving urine output of 500 (non-dosed group = 100)
In short: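 Male Wistar rats (7-8 weeks), water withheld 1 h, bladder emptied, drug given subcutaneously; 30 min later 20 ml/kg saline orally. Urine collected 5 h after saline loading in metabolic cages; ED200 and ED500 are doses giving urine output of 200 and 500 relative to non-dosed group at 100.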

[4] = mouse vas deferens, δ, NTI added
[5] = Mus musculus, sc, read-out: ED50

T1 sequence (P42866 whole entry): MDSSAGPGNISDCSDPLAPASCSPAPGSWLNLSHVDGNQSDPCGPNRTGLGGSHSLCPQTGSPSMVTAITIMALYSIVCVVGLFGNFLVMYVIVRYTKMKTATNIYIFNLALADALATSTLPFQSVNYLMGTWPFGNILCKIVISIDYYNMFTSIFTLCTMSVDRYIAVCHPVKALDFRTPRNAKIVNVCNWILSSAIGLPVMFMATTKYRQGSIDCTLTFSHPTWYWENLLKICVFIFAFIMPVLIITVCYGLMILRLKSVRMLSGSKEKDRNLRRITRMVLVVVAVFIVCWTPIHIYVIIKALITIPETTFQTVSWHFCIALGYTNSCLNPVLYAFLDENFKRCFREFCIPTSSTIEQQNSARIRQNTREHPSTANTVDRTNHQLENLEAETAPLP
T2 sequence (P33534 whole entry): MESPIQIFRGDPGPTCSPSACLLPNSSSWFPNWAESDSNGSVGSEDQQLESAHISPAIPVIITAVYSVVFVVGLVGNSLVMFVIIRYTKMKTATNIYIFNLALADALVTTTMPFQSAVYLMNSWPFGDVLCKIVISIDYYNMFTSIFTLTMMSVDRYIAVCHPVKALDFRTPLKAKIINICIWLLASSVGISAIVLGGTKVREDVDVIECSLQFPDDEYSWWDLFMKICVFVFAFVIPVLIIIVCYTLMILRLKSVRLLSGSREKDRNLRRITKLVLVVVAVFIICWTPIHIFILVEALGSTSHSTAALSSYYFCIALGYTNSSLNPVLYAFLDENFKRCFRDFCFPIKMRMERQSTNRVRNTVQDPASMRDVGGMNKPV
T3 sequence (P32300 whole entry): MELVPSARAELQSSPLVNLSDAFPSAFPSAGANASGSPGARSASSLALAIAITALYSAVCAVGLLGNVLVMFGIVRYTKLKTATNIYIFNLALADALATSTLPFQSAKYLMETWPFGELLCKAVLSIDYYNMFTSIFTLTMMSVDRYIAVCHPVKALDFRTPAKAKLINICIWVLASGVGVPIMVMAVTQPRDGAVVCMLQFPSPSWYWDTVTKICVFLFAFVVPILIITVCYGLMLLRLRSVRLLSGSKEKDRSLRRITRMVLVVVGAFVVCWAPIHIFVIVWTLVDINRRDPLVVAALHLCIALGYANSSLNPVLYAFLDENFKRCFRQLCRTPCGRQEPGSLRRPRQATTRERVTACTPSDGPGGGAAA

| SMILES | Ke, Naloxone (μ receptor) [nM] | receptor selectivity of agonist (κ) (κ receptor) | Ke, norBNI (κ receptor) [nM] | Ke, NTI (δ receptor; [4]) [nM] | ED50 [1, 5] [µg/kg] | IC50 [2] [nM] | ED (200% urine output) [3] [µg/kg] | ED (500% urine output) [3] [µg/kg] | Ke, NTI (δ receptor) [nM] | ED50 [1] [µg/kg] |
| --- | --- | --- | --- | --- | --- | --- | --- | --- | --- | --- |
| CCCCOC(=O)N(C)[C@@H]1CC[C@@]2(O)[C@H]3Cc4ccc(O)c5c4[C@@]2(CCN3CC2CC2)[C@H]1O5 [Compound 59, 17-cyclopropylmethyl-3,14β-dihydroxy-4,5α-epoxy-6β-(N-methylbutyroxycarbamido)morphinan.cndot.tartrate] | 21.3 | selective agonists for κ receptors | 0.151 | 47.3 | 2.8 | 1.14 | 10.5 | 2360 | – | – |
| C=CCN1CC[C@]23c4c5ccc(O)c4O[C@H]2[C@@H](N(C)C(=O)Cc2ccc(Cl)c(Cl)c2)CC[C@@]3(O)[C@H]1C5 [Compound 122, 17-allyl-3,14β-dihydroxy-4,5α-epoxy-6α-(N-methyl-3,4-dichlorophenylacetamido)morphinan.cndot.hydrochloride] | 59.5 | selective agonists for κ receptors | 0.358 | 42.7 | 340 | 3.01 | – | – | – | – |
| CN(C(=O)/C=C/c1ccoc1)[C@H]1CC[C@@]2(O)[C@H]3Cc4ccc(O)c5c4[C@@]2(CCN3CC2CC2)[C@H]1O5 [Compound 89, 17-cyclopropylmethyl-3,14β-dihydroxy-4,5α-epoxy-6α-[N-methyl-trans-3-(3-furyl)acrylamido]morphinan.cndot.tartrate] | 18.3 | selective agonists for κ receptors | 0.85 | – | 4.71 | 0.0934 | 1.2 | 16.2 | 15.6 | – |
| CN(C(=O)CSc1ccccc1)[C@H]1CC[C@@]2(O)[C@H]3Cc4ccc(O)c5c4[C@@]2(CCN3CC2CC2)[C@H]1O5 [Compound 45, 17-cyclopropylmethyl-4,5α-epoxy-3,14β-dihydroxy-6α-(N-methylthiophenoxyacetamido)morphinan.cndot.tartrate] | 26.5 | selective agonists for κ receptors | 0.416 | 135 | – | 0.185 | 8.1 | 857 | – | 3.8 |
| CN(C(=O)COc1ccccc1)[C@H]1CC[C@@]2(O)[C@H]3Cc4ccc(O)c5c4[C@@]2(CCN3CC2CC2)[C@H]1O5 [Compound 38, 17-cyclopropylmethyl-3,14β-dihydroxy-4,5α-epoxy-6α-(N-methylphenoxyacetamido)morphinan.cndot.hydrochloride] | 411 | selective agonists for κ receptors | 4.65 | 16.6 | 3.52 | 0.349 | 3.8 | 281 | – | – |
| CN(C(=O)/C=C/c1ccc(C(F)(F)F)cc1)[C@@H]1CC[C@@]2(O)[C@H]3Cc4ccc(O)c5c4[C@@]2(CCN3CC2CC2)[C@H]1O5 [Compound 73, 17-cyclopropylmethyl-3,14β-dihydroxy-4,5α-epoxy-6β-(N-methyl-4-trifluoromethylcinnamamido)morphinan.cndot.tartrate] | 524 | selective agonists for κ receptors | 0.272 | 78 | 23 | 0.072 | – | – | – | – |
| CC(=O)Oc1ccc2c3c1O[C@H]1[C@H](N(C)C(=O)/C=C/c4ccccc4)CC[C@@]4(O)[C@@H](C2)N(CC2CC2)CC[C@]314 [Compound 140, 17-Cyclopropylmethyl-3-acetoxy-14β-hydroxy-4,5α-epoxy-6β-(N-methylcinnamamido)morphinan.cndot.tartrate] | 320 | selective agonists for κ receptors | 1.06 | 261 | – | 0.413 | – | – | – | 3.4 |

Reference: patent US6177438A, “Morphinan derivatives and pharmaceutical use thereof” (priority 1993, dated 2001)
